Experimental data published in patent US10828308B2, “Treatment of non-alcoholic fatty liver disease or non-alcoholic steatohepatitis with delayed-release 6-mercaptopurine” (Hadasit Medical Research Services and Development Ltd., priority 2015, dated 2020).

System: STAM model of non-alcoholic steatohepatitis (NASH mice)
Assay: In vivo efficacy study of DR6-MP in STAM model of non-alcoholic steatohepatitis
Parameters: species or system C57BL/6 mice
Details: 10 mg/kg orally once daily from 6 to 9 weeks of age
Source text: Pathogen-free 14 day-pregnant C57BL/6 mice were obtained. NASH was established in male mice by a single subcutaneous injection of 200 τg streptozotocin after birth and feeding with a high fat diet ad libitum after 4 weeks of age (day 28±2). Mice were randomized into 5 groups of 8 mice at 6 weeks of age (day 42±2), the day before the start of treatment. Group 1 (Normal): Eight normal mice were fed with normal diet ad libitum without any treatment until 9 weeks of age. Group 2 (Vehicle): Eight NASH mice were orally administered vehicle [0.5% Methyl cellulose] in a volume of 10 mL/kg once daily from 6 to 9 weeks of age. […]
Mice in all groups were sacrificed for the following assays at 9 weeks of age: • Measurement of organ weight • Individual liver weight was measured. • Liver-to-body weight ratio was calculated. • Biochemical assays • Serum ALT and AST levels were measured. • Liver triglyceride contents were quantified. • Histological analyses for liver sections (according to a routine method). • HE staining and estimation of NAFLD Activity score. • Sirius-red staining and estimation of fibrosis area. • Immunochemical staining for F4/80 and estimation of the percentage of inflammation area. • Gene expression assays using total RNA from the liver. • Real-time RT-PCR analyses were performed for TNF-α, INF-γ, IL-10, MCP-1, CCR2, α-SMA, TGF-β, Collagen Type 1, Collagen Type 3, TIMP-1.

SMILES: CCCc1nc2c(C)cc(-c3nc4ccccc4n3C)cc2n1Cc1ccc(-c2ccccc2C(=O)O)cc1 [Telmisartan]
- fibrosis area (Sirius red-positive area) compared with the Vehicle group: significant decreases in fibrosis area
- Sirius red-positive area (%) (mean ± SD) (liver sections at 9 weeks): 0.74 ± 0.21%
